Reference: US8748496B2, “Methods of treatment of hyperuricemia and associated disease states” (Elan Pharmaceuticals, Inc., priority 2008, dated 2014)

System: uric acid levels
Assay: Multiple ascending dose study every twelve hours for seven days, uric acid in healthy elderly subjects
Format: in vivo, human
Conditions: for uric acid, Mean: N=6
Protocol: A single-center, randomized, placebo-controlled, multiple ascending dose study evaluating a scyllo-inositol formulation was conducted in healthy elderly subjects. Approximately 32 healthy subjects (men and women) participated in […] consisting of 8 subjects each (i.e., 6 on active drug and 2 on placebo). Subjects received drug twice daily (BID) (every 12 hours) for 7 days. The dosage levels of the scyllo-inositol were 200 mg BID (400 mg/d total), 700 mg BID (1400 mg/d total), 1500 mg BID (3000 mg/d total) and 3000 mg BID (6000 mg/d total) given every 12 hours. Blood samples were collected from each subject on days 0, 4, 7, and 12.
Scyllo-inositol 200 and 500 mg capsules were bovine spongiform encephalopathy (BSE)/transmissible spongiform encephalopathy (TSE)-free soft gelatin, white, opaque capsules and no excipient was used in the finished product. Capsules were supplied in 60-mL, oblong, white pharmaceutical high density polyethylene (HDPE) bottles with white caps. Each 60-mL bottle contained 30 capsules of 200 or 500 mg scyllo-inositol.
The mean change from baseline to day 7 versus placebo was used to determine statistical significance. […] The ANCOVA looked at the change of uric acid levels in controls from starting levels of uric acid; the software used was SAS 9.1.3. […] The point estimate of 0.85 is a population parameter in dosed subjects.

[1] = 200 mg BID oral 7 days group, Baseline (Day 0)
[2] = 700 mg BID oral 7 days group, Baseline (Day 0)
[3] = 1500 mg BID oral 7 days group, Baseline (Day 0)
[4] = 1500 mg BID oral 7 days, Day 12
[5] = 3000 mg BID oral 7 days group, Baseline (Day 0)
[6] = 3000 mg BID oral 7 days, Day 12

## O[C@H]1[C@H](O)[C@@H](O)[C@H](O)[C@@H](O)[C@@H]1O [scyllo-inositol, 1,2,3,4,5,6-cyclohexanehexyl, (1alpha,2beta,3alpha,4beta,5alpha,6beta)]
[1]
  uric acid, Max: 458 micromole per liter
  uric acid, Median: 318.2 micromole per liter
  uric acid, Min: 149 micromole per liter
  uric acid, Mean: 316.2 micromole per liter
200 mg BID oral 7 days, Day 4
  uric acid, Max: 410 micromole per liter
  uric acid, Max Change from Baseline: 54 micromole per liter
  uric acid, Mean Change from Baseline: −7.9 micromole per liter
  uric acid, Median: 330.1 micromole per liter
  uric acid, Median Change from Baseline: −11.9 micromole per liter
  uric acid, Min: 143 micromole per liter
  uric acid, Min Change from Baseline: −48 micromole per liter
  uric acid, Mean: 308.3 micromole per liter
200 mg BID oral 7 days, Day 7
  uric acid, Max: 387 micromole per liter
  uric acid, Max Change from Baseline: 18 micromole per liter
  uric acid, Mean Change from Baseline: −25.8 micromole per liter
  uric acid, Median: 333.1 micromole per liter
  uric acid, Median Change from Baseline: −17.8 micromole per liter
  uric acid, Min: 143 micromole per liter
  uric acid, Min Change from Baseline: −77 micromole per liter
  uric acid, Mean: 290.5 micromole per liter
200 mg BID oral 7 days, Day 12
  uric acid, Max: 476 micromole per liter
  uric acid, Max Change from Baseline: 59 micromole per liter
  uric acid, Median: 368.8 micromole per liter
  uric acid, Median Change from Baseline: 26.8 micromole per liter
  uric acid, Min: 184 micromole per liter
  uric acid, Min Change from Baseline: −12 micromole per liter
  uric acid, Mean: 342.0 micromole per liter
[2]
  uric acid, Max: 410 micromole per liter
  uric acid, Median: 258.7 micromole per liter
  uric acid, Min: 161 micromole per liter
  uric acid, Mean: 269.6 micromole per liter
700 mg BID oral 7 days, Day 4
  uric acid, Max: 351 micromole per liter
  uric acid, Max Change from Baseline: 0 micromole per liter
  uric acid, Mean Change from Baseline: −51.5 micromole per liter
  uric acid, Median: 175.5 micromole per liter
  uric acid, Median Change from Baseline: −62.5 micromole per liter
  uric acid, Min: 143 micromole per liter
  uric acid, Min Change from Baseline: −101 micromole per liter
  uric acid, Mean: 218.1 micromole per liter
700 mg BID oral 7 days, Day 7
  uric acid, Max: 309 micromole per liter
  uric acid, Max Change from Baseline: −12 micromole per liter
  uric acid, Mean Change from Baseline: −70.4 micromole per liter
  uric acid, Median: 169.5 micromole per liter
  uric acid, Median Change from Baseline: −83.3 micromole per liter
  uric acid, Min: 125 micromole per liter
  uric acid, Min Change from Baseline: −107 micromole per liter
  uric acid, Mean: 199.3 micromole per liter
700 mg BID oral 7 days, Day 12
  uric acid, Max: 410 micromole per liter
  uric acid, Max Change from Baseline: 30 micromole per liter
  uric acid, Mean Change from Baseline: −1.0 micromole per liter
  uric acid, Median: 237.9 micromole per liter
  uric acid, Median Change from Baseline: 3.0 micromole per liter
  uric acid, Min: 167 micromole per liter
  uric acid, Min Change from Baseline: −54 micromole per liter
  uric acid, Mean: 268.7 micromole per liter
[3]
  uric acid, Max: 434 micromole per liter
  uric acid, Median: 279.6 micromole per liter
  uric acid, Min: 220 micromole per liter
  uric acid, Mean: 303.3 micromole per liter
1500 mg BID oral 7 days, Day 4
  uric acid, Max: 291 micromole per liter
  uric acid, Max Change from Baseline: 12 micromole per liter
  uric acid, Mean Change from Baseline: −70.4 micromole per liter
  uric acid, Median: 237.9 micromole per liter
  uric acid, Median Change from Baseline: −71.4 micromole per liter
  uric acid, Min: 155 micromole per liter
  uric acid, Min Change from Baseline: −143 micromole per liter
  uric acid, Mean: 233.0 micromole per liter
1500 mg BID oral 7 days, Day 7
  uric acid, Max: 256 micromole per liter
  uric acid, Max Change from Baseline: −24 micromole per liter
  uric acid, Mean Change from Baseline: −88.2 micromole per liter
  uric acid, Median: 229.0 micromole per liter
  uric acid, Median Change from Baseline: −77.3 micromole per liter
  uric acid, Min: 155 micromole per liter
  uric acid, Min Change from Baseline: −196 micromole per liter
  uric acid, Mean: 215.1 micromole per liter
[4]
  uric acid, Max: 399 micromole per liter
  uric acid, Max Change from Baseline: 18 micromole per liter
  uric acid, Mean Change from Baseline: −27.8 micromole per liter
  uric acid, Median: 279.6 micromole per liter
  uric acid, Median Change from Baseline: −29.7 micromole per liter
  uric acid, Min: 196 micromole per liter
  uric acid, Min Change from Baseline: −65 micromole per liter
  uric acid, Mean: 275.6 micromole per liter
[5]
  uric acid, Max: 363 micromole per liter
  uric acid, Median: 300.4 micromole per liter
  uric acid, Min: 226 micromole per liter
  uric acid, Mean: 299.4 micromole per liter
3000 mg BID oral 7 days, Day 4
  uric acid, Max: 262 micromole per liter
  uric acid, Max Change from Baseline: −59 micromole per liter
  uric acid, Mean Change from Baseline: −83.3 micromole per liter
  uric acid, Median: 226.0 micromole per liter
  uric acid, Median Change from Baseline: −83.3 micromole per liter
  uric acid, Min: 161 micromole per liter
  uric acid, Min Change from Baseline: −107 micromole per liter
  uric acid, Mean: 216.1 micromole per liter
3000 mg BID oral 7 days, Day 7
  uric acid, Max: 268 micromole per liter
  uric acid, Max Change from Baseline: −71 micromole per liter
  uric acid, Mean Change from Baseline: −85.3 micromole per liter
  uric acid, Median: 214.1 micromole per liter
  uric acid, Median Change from Baseline: −74.4 micromole per liter
  uric acid, Min: 149 micromole per liter
  uric acid, Min Change from Baseline: −131 micromole per liter
  uric acid, Mean: 214.1 micromole per liter
[6]
  uric acid, Max: 345 micromole per liter
  uric acid, Max Change from Baseline: 18 micromole per liter
  uric acid, Mean Change from Baseline: −29.7 micromole per liter
  uric acid, Median: 270.6 micromole per liter
  uric acid, Median Change from Baseline: −23.8 micromole per liter
  uric acid, Min: 208 micromole per liter
  uric acid, Min Change from Baseline: −83 micromole per liter
  uric acid, Mean: 269.6 micromole per liter
200-3000 mg BID oral 7 days, Day 7
  decreases from baseline in uric acid, dose-response: a dose-response effect was not as apparent
200-3000 mg BID oral 7 days, Days 4 and 7, Day 12
  mean uric acid levels, relation to dose: dose-related decrease in mean uric acid levels was observed at Days 4 and 7, which partially resolved by Day 12
scyllo-inositol treated versus placebo, Day 7, ANCOVA
  mean difference (PLC-TRT) in change from baseline to day 7, point estimate: 0.85
